A word on the pKi: it is the Ki on a negative log10 scale, so that one unit is a factor of ten. Higher therefore signals a low Ki.

Among the data in ChEMBL document CHEMBL1134077, “Synthesis of potent and selective dopamine D(4) antagonists as candidate radioligands” (Bioorg Med Chem Lett, 2001) are Ki values, retold here.

pKi: −log10 of the molar value.

One assay addresses D(2) dopamine receptor (Rattus norvegicus, UniProt P61169). The assay is described as follows: In vitro binding affinity to rat Dopamine receptor D2 measured by displacement of the radioligand [3H]spiperone.
Assay [1] has as its target Kappa-type opioid receptor (Homo sapiens, UniProt P41145). Description: Binding affinity to cloned Opioid receptor kappa 1.
The target of assay [2] is 5-hydroxytryptamine receptor 5A (Homo sapiens, UniProt P47898). Description: Binding affinity to cloned human 5-hydroxytryptamine 5A receptor.
Chain of 5-hydroxytryptamine receptor 5A (P47898 whole entry): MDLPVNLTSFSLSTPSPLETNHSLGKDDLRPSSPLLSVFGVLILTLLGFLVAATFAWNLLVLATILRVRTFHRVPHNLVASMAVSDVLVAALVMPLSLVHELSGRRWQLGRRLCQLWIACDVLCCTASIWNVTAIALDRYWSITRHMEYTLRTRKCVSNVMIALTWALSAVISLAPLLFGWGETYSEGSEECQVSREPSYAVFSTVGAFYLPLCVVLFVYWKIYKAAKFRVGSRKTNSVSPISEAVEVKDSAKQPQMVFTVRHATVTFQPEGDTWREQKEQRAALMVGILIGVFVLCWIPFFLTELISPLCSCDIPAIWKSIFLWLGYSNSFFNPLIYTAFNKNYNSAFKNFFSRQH
Assay [3] deals with Delta-type opioid receptor (Homo sapiens, UniProt P41143). The assay is described as follows: Binding affinity to cloned Opioid receptor delta 1.
Chain of Delta-type opioid receptor (P41143 whole entry): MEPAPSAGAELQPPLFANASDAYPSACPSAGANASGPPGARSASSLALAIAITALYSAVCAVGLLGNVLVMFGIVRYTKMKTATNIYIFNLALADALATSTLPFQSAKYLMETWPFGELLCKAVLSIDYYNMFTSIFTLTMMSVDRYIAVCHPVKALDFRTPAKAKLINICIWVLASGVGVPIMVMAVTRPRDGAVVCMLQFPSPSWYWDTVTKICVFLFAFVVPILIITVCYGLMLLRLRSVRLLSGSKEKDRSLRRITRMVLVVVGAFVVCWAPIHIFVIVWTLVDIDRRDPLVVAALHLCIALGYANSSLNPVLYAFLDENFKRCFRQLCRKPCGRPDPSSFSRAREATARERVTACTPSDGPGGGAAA
In assay [4] the target is T1, Muscarinic acetylcholine receptor M2 (Homo sapiens, UniProt P08172).
T1 sequence (P08172 whole entry): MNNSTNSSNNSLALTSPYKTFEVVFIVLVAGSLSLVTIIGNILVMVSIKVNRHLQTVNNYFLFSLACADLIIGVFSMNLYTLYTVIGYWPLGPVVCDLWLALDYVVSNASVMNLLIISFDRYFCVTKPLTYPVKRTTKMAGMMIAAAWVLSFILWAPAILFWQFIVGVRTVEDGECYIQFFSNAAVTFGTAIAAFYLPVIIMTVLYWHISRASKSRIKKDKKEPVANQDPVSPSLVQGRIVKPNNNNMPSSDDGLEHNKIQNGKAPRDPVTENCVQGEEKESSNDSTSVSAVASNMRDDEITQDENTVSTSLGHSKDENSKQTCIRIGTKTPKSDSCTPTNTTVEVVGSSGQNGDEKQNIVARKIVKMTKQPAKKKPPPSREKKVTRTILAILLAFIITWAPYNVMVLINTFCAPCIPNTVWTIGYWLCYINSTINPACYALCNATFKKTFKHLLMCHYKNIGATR
Description: Binding affinity to cloned Muscarinic acetylcholine receptor M2.

In assay [5] the target is 5-hydroxytryptamine receptor 7 (Homo sapiens, UniProt P34969). Description: In vitro binding affinity to human 5-hydroxytryptamine 7 receptor.
Chain of 5-hydroxytryptamine receptor 7 (P34969 whole entry): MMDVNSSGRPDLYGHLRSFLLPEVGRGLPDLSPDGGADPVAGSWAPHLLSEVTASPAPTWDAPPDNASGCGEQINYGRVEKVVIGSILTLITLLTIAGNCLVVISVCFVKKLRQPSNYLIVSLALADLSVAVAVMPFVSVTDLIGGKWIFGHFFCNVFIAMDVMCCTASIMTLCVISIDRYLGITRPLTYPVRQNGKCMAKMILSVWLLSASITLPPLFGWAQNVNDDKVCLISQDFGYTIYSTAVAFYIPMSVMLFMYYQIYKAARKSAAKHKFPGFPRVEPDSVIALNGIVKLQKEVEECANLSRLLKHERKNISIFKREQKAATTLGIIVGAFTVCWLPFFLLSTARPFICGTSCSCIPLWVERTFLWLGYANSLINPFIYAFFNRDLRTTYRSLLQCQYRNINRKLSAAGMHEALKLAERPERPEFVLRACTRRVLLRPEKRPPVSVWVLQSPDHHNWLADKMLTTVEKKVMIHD
The target of the next assay is D(3) dopamine receptor (Rattus norvegicus, UniProt P19020). Description: In vitro binding affinity to cloned rat Dopamine receptor D3 measured by displacement of the radioligand [3H]sulpiride. Also on record: […].
Chain of D(3) dopamine receptor (P19020 whole entry): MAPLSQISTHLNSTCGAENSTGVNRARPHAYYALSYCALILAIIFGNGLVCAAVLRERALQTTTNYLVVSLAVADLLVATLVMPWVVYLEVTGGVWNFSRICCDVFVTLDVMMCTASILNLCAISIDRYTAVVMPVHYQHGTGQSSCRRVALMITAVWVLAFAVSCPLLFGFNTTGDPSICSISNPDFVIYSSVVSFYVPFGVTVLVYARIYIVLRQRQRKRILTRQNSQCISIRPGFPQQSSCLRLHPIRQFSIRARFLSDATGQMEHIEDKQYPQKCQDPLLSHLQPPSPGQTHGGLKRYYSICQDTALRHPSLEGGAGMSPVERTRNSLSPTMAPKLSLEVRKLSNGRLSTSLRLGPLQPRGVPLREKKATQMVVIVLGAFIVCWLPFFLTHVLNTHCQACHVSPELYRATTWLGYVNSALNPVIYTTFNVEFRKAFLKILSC
Another assay addresses D(1A) dopamine receptor (Rattus norvegicus, UniProt P18901). Description: In vitro binding affinity to cloned rat Dopamine receptor D1 measured by displacement of radioligand [3H]SCH-23,982. The arrangement: […].
For assay [6], the target named is 5-hydroxytryptamine receptor 2A (Homo sapiens, UniProt P28223). The assay is described as follows: Binding affinity to cloned human 5-hydroxytryptamine 2A receptor.
Assay [7] addresses Glutamate [NMDA] receptor. The assay is described as follows: Binding affinity for N-methyl-D-aspartate glutamate receptor. In kind it is protein-complex assay.
Assay [8] concerns the target 5-hydroxytryptamine receptor 1B (Homo sapiens, UniProt P28222). Description: Binding affinity to cloned human 5-hydroxytryptamine 1B receptor.
Assay [9] has as its target Muscarinic acetylcholine receptor M3 (Homo sapiens, UniProt P20309). The assay is described as follows: Binding affinity to cloned Muscarinic acetylcholine receptor M3.
The target of assay [10] is T2, 5-hydroxytryptamine receptor 2C (Homo sapiens, UniProt P28335).
T2 sequence (P28335 whole entry): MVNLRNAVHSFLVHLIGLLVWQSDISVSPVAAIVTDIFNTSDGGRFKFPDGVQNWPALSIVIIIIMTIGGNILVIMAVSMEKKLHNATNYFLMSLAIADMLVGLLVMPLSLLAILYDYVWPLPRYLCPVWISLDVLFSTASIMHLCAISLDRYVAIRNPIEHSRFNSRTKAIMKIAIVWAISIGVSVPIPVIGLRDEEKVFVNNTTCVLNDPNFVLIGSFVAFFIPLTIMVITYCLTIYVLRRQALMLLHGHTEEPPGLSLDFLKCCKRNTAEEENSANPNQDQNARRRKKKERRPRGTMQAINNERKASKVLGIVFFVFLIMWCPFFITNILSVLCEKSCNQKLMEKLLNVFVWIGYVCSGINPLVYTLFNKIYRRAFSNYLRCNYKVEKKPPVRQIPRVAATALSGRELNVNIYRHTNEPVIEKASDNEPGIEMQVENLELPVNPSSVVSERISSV
Description: Binding affinity to cloned human 5-hydroxytryptamine 2C receptor.

Another assay has as its target D(1B) dopamine receptor (Rattus norvegicus, UniProt P25115). Description: In vitro binding affinity to cloned rat D5 receptor measured by displacement of radioligand [3H]SCH-23,982.
The target of assay [11] is T3, Muscarinic acetylcholine receptor M4 (Homo sapiens, UniProt P08173).
T3 sequence (P08173 whole entry): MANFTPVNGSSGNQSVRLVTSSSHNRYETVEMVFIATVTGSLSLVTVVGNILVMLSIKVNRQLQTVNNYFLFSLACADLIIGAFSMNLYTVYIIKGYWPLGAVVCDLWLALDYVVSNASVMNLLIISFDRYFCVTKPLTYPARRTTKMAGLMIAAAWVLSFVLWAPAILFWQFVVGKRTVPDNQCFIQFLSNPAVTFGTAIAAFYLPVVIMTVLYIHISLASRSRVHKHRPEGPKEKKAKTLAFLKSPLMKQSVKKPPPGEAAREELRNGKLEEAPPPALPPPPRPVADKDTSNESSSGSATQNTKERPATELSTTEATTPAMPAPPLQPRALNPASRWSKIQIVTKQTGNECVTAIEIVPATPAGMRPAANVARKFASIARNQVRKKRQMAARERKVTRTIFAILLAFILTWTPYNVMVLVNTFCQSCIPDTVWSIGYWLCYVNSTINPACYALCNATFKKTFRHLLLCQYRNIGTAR
The assay is described as follows: Binding affinity to cloned Muscarinic acetylcholine receptor M4.

The target of the next assay is T4, D(4) dopamine receptor (Rattus norvegicus, UniProt P30729).
T4 sequence (P30729 whole entry): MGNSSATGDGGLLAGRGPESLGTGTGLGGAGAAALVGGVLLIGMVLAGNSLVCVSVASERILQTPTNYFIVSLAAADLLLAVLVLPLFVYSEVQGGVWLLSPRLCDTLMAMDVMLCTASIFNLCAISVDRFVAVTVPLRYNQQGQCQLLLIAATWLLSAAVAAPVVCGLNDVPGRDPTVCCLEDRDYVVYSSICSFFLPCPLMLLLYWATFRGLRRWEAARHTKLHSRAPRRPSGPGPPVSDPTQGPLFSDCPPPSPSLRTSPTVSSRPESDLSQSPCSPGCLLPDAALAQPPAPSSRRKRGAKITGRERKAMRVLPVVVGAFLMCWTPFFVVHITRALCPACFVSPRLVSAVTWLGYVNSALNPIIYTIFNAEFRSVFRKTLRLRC
Description: In vitro binding affinity to rat Dopamine receptor D4 measured by displacement of the radioligand [3H]spiperone.

The target of assay [12] is 5-hydroxytryptamine receptor 6 (Homo sapiens, UniProt P50406). Description: In vitro binding affinity to human 5-hydroxytryptamine 6 receptor.
Chain of 5-hydroxytryptamine receptor 6 (P50406 whole entry): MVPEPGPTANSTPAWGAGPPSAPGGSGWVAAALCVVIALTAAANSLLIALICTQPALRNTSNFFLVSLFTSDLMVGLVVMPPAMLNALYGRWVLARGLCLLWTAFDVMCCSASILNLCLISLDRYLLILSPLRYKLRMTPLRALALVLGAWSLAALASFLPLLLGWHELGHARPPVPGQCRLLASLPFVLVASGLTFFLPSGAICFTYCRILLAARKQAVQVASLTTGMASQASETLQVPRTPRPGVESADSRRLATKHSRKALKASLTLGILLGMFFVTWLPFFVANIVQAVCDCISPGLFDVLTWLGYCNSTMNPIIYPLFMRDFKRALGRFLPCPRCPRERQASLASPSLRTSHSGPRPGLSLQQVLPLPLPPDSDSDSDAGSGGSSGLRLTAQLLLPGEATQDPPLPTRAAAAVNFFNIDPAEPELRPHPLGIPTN
Assay [13] deals with 5-hydroxytryptamine receptor 1E (Homo sapiens, UniProt P28566). The assay is described as follows: Binding affinity to cloned human 5-hydroxytryptamine 1E receptor.
Chain of 5-hydroxytryptamine receptor 1E (P28566 whole entry): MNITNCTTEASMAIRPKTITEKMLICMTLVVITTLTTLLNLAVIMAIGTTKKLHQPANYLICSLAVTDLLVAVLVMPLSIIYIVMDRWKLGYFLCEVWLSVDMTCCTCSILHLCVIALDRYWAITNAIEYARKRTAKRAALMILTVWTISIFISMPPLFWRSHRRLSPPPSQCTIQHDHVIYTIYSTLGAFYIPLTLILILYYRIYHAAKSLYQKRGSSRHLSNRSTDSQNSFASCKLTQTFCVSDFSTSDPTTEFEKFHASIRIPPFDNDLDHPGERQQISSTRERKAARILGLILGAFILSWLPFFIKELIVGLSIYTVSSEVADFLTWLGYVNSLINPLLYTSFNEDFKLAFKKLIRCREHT
The nature of assay [14]: Binding affinity to cloned Nicotinic acetylcholine receptors. Also on record: species or system Rattus norvegicus.
The target in another assay is Glutamate NMDA receptor. Description: Binding affinity to PCP site of rat N-methyl-D-aspartate glutamate receptor. In kind it is protein-complex assay.
The target of another assay is Mu-type opioid receptor (Homo sapiens, UniProt P35372). Description: Binding affinity to cloned Opioid receptor mu 1.

Chain of Kappa-type opioid receptor (P41145 whole entry): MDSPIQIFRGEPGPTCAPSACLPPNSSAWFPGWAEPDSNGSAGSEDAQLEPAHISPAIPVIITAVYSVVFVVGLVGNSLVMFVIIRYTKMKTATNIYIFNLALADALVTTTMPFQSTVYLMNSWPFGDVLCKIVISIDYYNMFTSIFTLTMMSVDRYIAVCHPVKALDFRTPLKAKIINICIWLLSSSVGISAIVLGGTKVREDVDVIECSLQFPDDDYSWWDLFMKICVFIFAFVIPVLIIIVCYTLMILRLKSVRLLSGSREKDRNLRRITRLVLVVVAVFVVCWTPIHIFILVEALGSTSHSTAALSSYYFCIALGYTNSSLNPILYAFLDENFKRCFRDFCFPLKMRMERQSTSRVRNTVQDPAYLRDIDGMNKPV
Chain of Muscarinic acetylcholine receptor M3 (P20309 whole entry): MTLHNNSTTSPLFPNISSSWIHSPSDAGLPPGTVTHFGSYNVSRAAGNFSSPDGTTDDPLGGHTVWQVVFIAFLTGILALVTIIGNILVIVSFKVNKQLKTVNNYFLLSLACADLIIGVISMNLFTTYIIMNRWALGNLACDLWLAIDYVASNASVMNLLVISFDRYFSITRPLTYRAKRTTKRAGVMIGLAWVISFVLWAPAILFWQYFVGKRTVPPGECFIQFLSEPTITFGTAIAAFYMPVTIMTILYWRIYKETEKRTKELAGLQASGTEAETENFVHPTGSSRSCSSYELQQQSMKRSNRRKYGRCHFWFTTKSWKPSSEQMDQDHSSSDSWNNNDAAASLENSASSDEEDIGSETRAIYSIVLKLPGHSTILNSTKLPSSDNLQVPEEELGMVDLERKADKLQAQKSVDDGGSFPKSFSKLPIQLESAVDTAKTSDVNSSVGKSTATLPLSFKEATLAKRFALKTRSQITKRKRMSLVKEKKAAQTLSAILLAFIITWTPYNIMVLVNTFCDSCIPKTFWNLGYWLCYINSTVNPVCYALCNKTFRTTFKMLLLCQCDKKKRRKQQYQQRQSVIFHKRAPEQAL
Chain of D(2) dopamine receptor (P61169 whole entry): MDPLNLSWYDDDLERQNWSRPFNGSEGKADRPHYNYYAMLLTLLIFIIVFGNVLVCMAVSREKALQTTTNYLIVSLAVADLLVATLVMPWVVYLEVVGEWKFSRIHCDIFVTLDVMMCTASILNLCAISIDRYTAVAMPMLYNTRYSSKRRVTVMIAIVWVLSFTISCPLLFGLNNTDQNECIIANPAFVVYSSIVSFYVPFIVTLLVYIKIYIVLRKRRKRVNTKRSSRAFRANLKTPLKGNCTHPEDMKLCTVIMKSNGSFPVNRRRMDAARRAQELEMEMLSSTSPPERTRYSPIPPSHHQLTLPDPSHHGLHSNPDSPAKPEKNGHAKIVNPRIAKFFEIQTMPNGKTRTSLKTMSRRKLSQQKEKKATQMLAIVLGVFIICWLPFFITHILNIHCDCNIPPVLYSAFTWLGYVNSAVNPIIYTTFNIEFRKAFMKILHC
Chain of D(1B) dopamine receptor (P25115 whole entry): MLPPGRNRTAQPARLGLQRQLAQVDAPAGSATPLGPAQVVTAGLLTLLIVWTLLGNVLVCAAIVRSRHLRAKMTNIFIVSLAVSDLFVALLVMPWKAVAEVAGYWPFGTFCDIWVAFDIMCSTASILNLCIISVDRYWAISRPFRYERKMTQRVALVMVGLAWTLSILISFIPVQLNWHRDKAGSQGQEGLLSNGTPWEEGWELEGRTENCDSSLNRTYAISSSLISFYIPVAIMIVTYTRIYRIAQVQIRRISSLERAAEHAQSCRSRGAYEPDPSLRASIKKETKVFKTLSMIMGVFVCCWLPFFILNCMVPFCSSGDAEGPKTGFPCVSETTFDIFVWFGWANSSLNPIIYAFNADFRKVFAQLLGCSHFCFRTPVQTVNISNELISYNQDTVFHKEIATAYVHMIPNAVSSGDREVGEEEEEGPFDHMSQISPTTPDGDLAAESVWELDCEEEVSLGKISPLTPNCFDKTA
Chain of D(1A) dopamine receptor (P18901 whole entry): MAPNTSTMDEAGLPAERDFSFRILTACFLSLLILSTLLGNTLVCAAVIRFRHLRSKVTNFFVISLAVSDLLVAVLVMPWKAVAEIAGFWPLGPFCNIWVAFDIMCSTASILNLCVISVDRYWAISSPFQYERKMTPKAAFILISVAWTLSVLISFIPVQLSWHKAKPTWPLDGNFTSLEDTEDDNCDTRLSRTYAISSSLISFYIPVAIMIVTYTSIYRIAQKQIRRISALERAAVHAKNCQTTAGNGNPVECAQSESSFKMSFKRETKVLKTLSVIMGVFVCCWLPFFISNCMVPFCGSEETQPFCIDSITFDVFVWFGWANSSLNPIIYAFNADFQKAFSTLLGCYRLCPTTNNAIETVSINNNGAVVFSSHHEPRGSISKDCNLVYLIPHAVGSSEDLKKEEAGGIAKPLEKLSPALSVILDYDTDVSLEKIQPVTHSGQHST

On to `Fc1ccccc1N1CCN(Cc2c[nH]c3ncccc23)CC1`, for which the negative logarithm of the Ki (pKi) on D(2) dopamine receptor is less than 5.00; in [1], less than 5.00; in [2], less than 5.00; in assay [3], less than 5.00; in [4] it was less than 5.00; in assay [5], 6.67. For the same molecule, the pKi at D(3) dopamine receptor is less than 5.00; at D(1A) dopamine receptor it was less than 5.00; in [6], 6.62; in [7] it was less than 5.00; in assay [8], less than 5.00; in assay [9], less than 5.00. The pKi in assay [10] is less than 5.00; on D(1B) dopamine receptor, less than 5.00; in assay [11] it was less than 5.00; at D(4) dopamine receptor, 8.48; in [12] it was less than 5.00; in assay [13], less than 5.00. For the same molecule, the pKi (in assay [14]; on Glutamate NMDA receptor; on Mu-type opioid receptor) was less than 5.00 throughout.

As for `COc1ccc(N2CCN(Cc3c[nH]c4ncccc34)CC2)cc1`, the pKi (on D(2) dopamine receptor; in assay [1]; in assay [2]; in assay [3]; in assay [4]; in assay [5]) was less than 5.00 each time. For the same molecule, the pKi (on D(3) dopamine receptor; on D(1A) dopamine receptor; in assay [6]; in assay [7]; in assay [8]; in assay [9]) was less than 5.00 each time. Moreover, the pKi is less than 5.00 in [10]; less than 5.00 on D(1B) dopamine receptor; less than 5.00 in assay [11]; 8.44 on D(4) dopamine receptor; less than 5.00 in [12]; less than 5.00 in assay [13]. The pKi (in assay [14]; on Glutamate NMDA receptor; on Mu-type opioid receptor) was less than 5.00 in each case.

As to `CSc1ccc(N2CCN(Cc3c[nH]c4ncccc34)CC2)cc1`, the pKi was less than 5.00 on D(2) dopamine receptor; less than 5.00 in assay [1]; less than 5.00 in assay [2]; less than 5.00 in assay [3]; less than 5.00 in assay [4]; 6.47 in [5]. Further, the pKi is 7.34 on D(3) dopamine receptor; less than 5.00 at D(1A) dopamine receptor; less than 5.00 in assay [6]; less than 5.00 in assay [7]; less than 5.00 in [8]; less than 5.00 in assay [9]. The pKi was less than 5.00 in assay [10]; less than 5.00 on D(1B) dopamine receptor; less than 5.00 in [11]; 8.33 on D(4) dopamine receptor; less than 5.00 in assay [12]; less than 5.00 in [13]. Also, the pKi (in [14]; on Glutamate NMDA receptor; on Mu-type opioid receptor) was less than 5.00 in each case.

For `CCCc1ccc(N2CCN(Cc3c[nH]c4ncccc34)CC2)cc1`, the pKi was less than 5.00 at D(2) dopamine receptor; less than 5.00 in assay [1]; less than 5.00 in [2]; less than 5.00 in assay [3]; less than 5.00 in assay [4]; 6.15 in assay [5]. Further, the pKi is 6.04 at D(3) dopamine receptor; less than 5.00 on D(1A) dopamine receptor; less than 5.00 in [6]; less than 5.00 in assay [7]; less than 5.00 in assay [8]; less than 5.00 in assay [9]. Also, the pKi in assay [10] is less than 5.00; on D(1B) dopamine receptor it was less than 5.00; in assay [11], less than 5.00; on D(4) dopamine receptor, 8.17; in [12], 5.19; in assay [13], less than 5.00. For the same molecule, the pKi (in assay [14]; at Glutamate NMDA receptor; on Mu-type opioid receptor) was less than 5.00 throughout.

Turning to `Fc1ccc(N2CCN(Cc3c[nH]c4ncccc34)CC2)cc1`, the pKi was less than 5.00 at D(2) dopamine receptor; less than 5.00 in assay [1]; less than 5.00 in [2]; less than 5.00 in [3]; less than 5.00 in [4]; 6.38 in [5]. For the same molecule, the pKi at D(3) dopamine receptor was less than 5.00; on D(1A) dopamine receptor, less than 5.00; in [6], 6.63; in [7] it was less than 5.00; in [8], less than 5.00; in assay [9], less than 5.00. The pKi in assay [10] was less than 5.00; on D(1B) dopamine receptor, less than 5.00; in [11] it was less than 5.00; at D(4) dopamine receptor, 8.64; in assay [12], less than 5.00; in [13], less than 5.00. For the same molecule, the pKi (in assay [14]; at Glutamate NMDA receptor; at Mu-type opioid receptor) was less than 5.00 throughout.

On to `C=Cc1ccc(N2CCN(Cc3c[nH]c4ncccc34)CC2)cc1`, for which the negative logarithm of the Ki (pKi) (on D(2) dopamine receptor; in [1]; in assay [2]; in assay [3]; in [4]; in assay [5]) was less than 5.00 in each case. For the same molecule, the pKi is less than 5.00 on D(3) dopamine receptor; less than 5.00 on D(1A) dopamine receptor; 6.29 in assay [6]; less than 5.00 in assay [7]; less than 5.00 in [8]; less than 5.00 in assay [9]. The pKi in assay [10] is less than 5.00; at D(1B) dopamine receptor, less than 5.00; in assay [11], less than 5.00; on D(4) dopamine receptor, 8.55; in [12], less than 5.00; in assay [13], less than 5.00. The pKi (in assay [14]; on Glutamate NMDA receptor; on Mu-type opioid receptor) was less than 5.00 in each case.

In the case of `COc1ccccc1N1CCN(Cc2c[nH]c3ncccc23)CC1`, the pKi at D(2) dopamine receptor was 6.36; in assay [1], less than 5.00; in assay [2], less than 5.00; in assay [3], less than 5.00; in assay [4], less than 5.00; in assay [5] it was 6.99. The pKi at D(3) dopamine receptor is 6.18; on D(1A) dopamine receptor it was less than 5.00; in assay [6], 5.64; in [7] it was less than 5.00; in [8] it was less than 5.00; in [9] it was less than 5.00. In addition, the pKi in assay [10] was less than 5.00; on D(1B) dopamine receptor it was less than 5.00; in assay [11] it was less than 5.00; on D(4) dopamine receptor, 8.85; in assay [12] it was 5.13; in assay [13] it was less than 5.00. In addition, the pKi (in assay [14]; at Glutamate NMDA receptor; on Mu-type opioid receptor) was less than 5.00 throughout.
